Experimental data as given in paper PMC12291851, “Hydrogen Sulfide (H2S)-Donating Formyl Peptide Receptor 2 (FPR2) Agonists: Design, Synthesis, and Biological Evaluation in Primary Mouse Microglia Culture” (Antioxidants, 2025).

Columns and labels:
IL-10 = IL-10 ELISA in medium of microglial cultures; format: cell-based, mouse; conditions: 1 μM pretreatment 1 h, then LPS 0.1 μg/mL 24 h
Description: Primary microglial cell cultures were derived from the cortices of 1–2-day-old mouse pups (1pup/1 brain/1 flask). After decapitation, the brains were extracted and immediately placed in cold Hanks’ Balanced Salt Solution (HBSS, Gibco, New York, NY, USA) on ice. The brains were washed at least three times with 7 mL of HBSS and then transferred to 10 mL of fresh culture media consisting of Dulbecco’s Modified Eagle Medium (DMEM) with GlutaMax and high glucose (4.5 g/L) (Gibco, New York, NY, USA) on ice. The tissue was minced and incubated in HBSS containing glucose, bovine serum albumin (BSA; Sigma-Aldrich, St. Louis, MO, USA), and HEPES (Gibco, New York, NY, USA) with 0.025% trypsin at 37 °C for 20 min. […] The purity of microglial cell cultures was assessed as we have shown previously. […]
To assess the effect of test compounds on IL-18, IL-6, and IL-10 levels, the medium of microglial cell cultures was collected 24 h after LPS treatment. The protein levels of the cytokines IL-18 (Mouse interleukin 18 ELISA kit), IL-6 (Mouse interleukin 6 ELISA kit), and IL-10 (Mouse interleukin 10 ELISA kit; all obtained from FineTest, Wuhan, China) were measured using commercially available enzyme-linked immunosorbent assay kits according to the manufacturer’s instructions. […]

[1] = Cell-free MTT-based H2S release assay; format: physicochemical; conditions: 24 h incubation in MEM with 10% DMSO
Description: Solutions at different concentrations of each compound in 100 µL of serum-free MEM/10% DMSO with 0.5 mg/mL 3-(4,5-dimethylthiazol-2yl)-2,5-diphenyltetrazolium bromide (MTT) were incubated for 5 h or 24 h in a humidified incubator at 37 °C in 5% CO2 atmosphere. The experimental design comprised blank wells containing only medium and MTT, and a H2S calibration curve obtained by incubating nine solutions at decreasing concentrations (100 µM to 0.01 µM) of NaHS in medium and MTT. At the end of incubation time, the supernatant was removed, the […] crystals were dissolved in 100 µL DMSO/EtOH (1:1 v/v), and absorbance values were read using a Victor 3 plate reader (PerkinElmer, Shelton, CT, USA) at 570 nm. H2S values are expressed as mean ± S.E.M. of the results of three independent experiments conducted in triplicate, and were plotted using GraphPad Prism 7.
To decipher such results and considering the redox properties of H2S, we questioned if H2S released by our compounds in the culture media could interfere with the conversion of MTT (3-[4,5-dimethylthiazol-2-yl]-2,5-diphenyl tetrazolium bromide) to formazan, which is usually related to cell viability. Thus, we ran cell-free experiments in which MTT was used as the substrate to capture the reductive action of H2S. We found, in agreement with Gerő et al., that some of our thioureas and thioamides reduced MTT to formazan after 24 h incubation in MEM with 10% DMSO.

[2] = Cell-free H2S release fluorescence assay with probe 9 (7-azido-4-methylcoumarin); format: physicochemical; conditions: PBS/DMSO 10%, 37 °C, probe 9 100 μM
Description: The H2S release fluorescence assay was carried out in a final volume of 100 μL PBS/DMSO 10% in black 96-well plates. Solutions with decreasing concentrations of each tested compound were prepared in PBS/DMSO 10%. Then, 50 μL of each solution was dispensed in triplicate in each well. Starting from a 10 mM stock solution, a 200 μM solution of probe 9 was prepared and stored in the dark until 50 μL was dispensed in each well. Blank wells containing only the probe at 100 μM in 100 μL of PBS/DMSO 10% are also prepared. A H2S calibration curve was obtained by incubating solutions of NaSH with the probe under the same conditions, although a different plate was used to minimize interferences due to the diffusion of rapidly released H2S. After 24 h and 48 h incubation in a humidified incubator at 37 °C, 5% CO2, fluorescence reads are obtained from each well with a plate reader TECAN M1000 Pro (Tecan, Männedorf, Switzerland), at λex = 350 nm and λem = 440 nm. Each experiment was replicated at least three times. The data were processed using Microsoft Excel (Microsoft, Redmond, WA, USA) and GraphPad Prism 7 (GraphPad Software, La Jolla, CA, USA).
Compound 9 is a turn-on fluorescent probe that features an azido moiety which can be reduced to amine by H2S, leading to the formation of the fluorescent derivative 7-amino-4-methylcoumarin 10 (λex = 350 nm and λem = 440 nm, Scheme 2). We included NaHS in the assay as a positive control and 3a as a negative control.

SMILES	LPS-induced increase of IL-10 level (IL-10)	absorbance signal (MTT reduction to formazan) indicative of H2S release [1]	H2S release detected with probe 9 in aqueous media ([2]; 24 h incubation)	H2S release detected with probe 9 in aqueous media ([2]; 48 h incubation)
N#Cc1ccc(C[C@H](NC(=O)Nc2ccc(F)cc2)C(=S)N2CCc3ccccc32)cc1 [7b, (S)-1-[3-(4-Cyanophenyl)-1-(indolin-1-yl)-1-thioxopropan-2-yl]-3-(4-fluorophenyl)urea]	able to counterbalance the LPS-induced increase	robust absorbance signal	detected H2S release	more intense
N#Cc1ccc(C[C@H](NC(=O)Nc2ccc(Br)cc2)C(=S)N2CCc3ccccc32)cc1 [8b, (S)-1-(4-Bromophenyl)-3-[3-(4-cyanophenyl)-1-(indolin-1-yl)-1-thioxopropan-2-yl]urea]	able to counterbalance the LPS-induced increase	below the assay’s detection limit		limited capability to release H2S
